From ChEMBL document CHEMBL3352633, “β-Lactam estrogen receptor antagonists and a dual-targeting estrogen receptor/tubulin ligand” (J Med Chem, 2014)
Active and inactive are the calls of the source. No cut-off for these calls is given here.

Tests used:
[1] = molecular target: T1, Estrogen receptor (Homo sapiens) (UniProt P03372); assay: Agonist activity at human recombinant ERalpha by FRET assay
T1 sequence (whole entry): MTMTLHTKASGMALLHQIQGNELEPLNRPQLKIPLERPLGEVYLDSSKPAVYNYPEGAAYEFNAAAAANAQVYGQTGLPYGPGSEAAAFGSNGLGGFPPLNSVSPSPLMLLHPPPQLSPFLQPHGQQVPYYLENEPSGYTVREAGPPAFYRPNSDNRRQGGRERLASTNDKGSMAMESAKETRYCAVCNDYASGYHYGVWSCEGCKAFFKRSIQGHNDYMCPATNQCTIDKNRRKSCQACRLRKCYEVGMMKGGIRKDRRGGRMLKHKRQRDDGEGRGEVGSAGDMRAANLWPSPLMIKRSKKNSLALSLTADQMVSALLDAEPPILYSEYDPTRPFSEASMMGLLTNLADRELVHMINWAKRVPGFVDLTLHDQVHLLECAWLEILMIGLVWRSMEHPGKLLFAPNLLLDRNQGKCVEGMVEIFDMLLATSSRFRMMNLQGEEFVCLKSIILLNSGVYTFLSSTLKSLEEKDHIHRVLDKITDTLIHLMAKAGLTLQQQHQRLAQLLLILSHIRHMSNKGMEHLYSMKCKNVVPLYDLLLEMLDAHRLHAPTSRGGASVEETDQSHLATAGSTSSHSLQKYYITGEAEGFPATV

[2] = system: MCF7; assay: cells; settings: Homo sapiens, MCF7, 72 h
[3] = molecular target: T2, Estrogen receptor (Homo sapiens, UniProt P03372)
T2 sequence (P03372 whole entry): T1 sequence (whole entry)
Description: (§1) Displacement of fluorescein-labeled estrogen from human recombinant ERalpha by fluorescence polarization based competitive binding affinity assay

[4] = molecular target: T2, Estrogen receptor; assay: Antagonist activity at human recombinant ERalpha by FRET assay
[5] = molecular target: T3, Estrogen receptor beta (Homo sapiens, UniProt Q92731)
T3 sequence (Q92731 whole entry): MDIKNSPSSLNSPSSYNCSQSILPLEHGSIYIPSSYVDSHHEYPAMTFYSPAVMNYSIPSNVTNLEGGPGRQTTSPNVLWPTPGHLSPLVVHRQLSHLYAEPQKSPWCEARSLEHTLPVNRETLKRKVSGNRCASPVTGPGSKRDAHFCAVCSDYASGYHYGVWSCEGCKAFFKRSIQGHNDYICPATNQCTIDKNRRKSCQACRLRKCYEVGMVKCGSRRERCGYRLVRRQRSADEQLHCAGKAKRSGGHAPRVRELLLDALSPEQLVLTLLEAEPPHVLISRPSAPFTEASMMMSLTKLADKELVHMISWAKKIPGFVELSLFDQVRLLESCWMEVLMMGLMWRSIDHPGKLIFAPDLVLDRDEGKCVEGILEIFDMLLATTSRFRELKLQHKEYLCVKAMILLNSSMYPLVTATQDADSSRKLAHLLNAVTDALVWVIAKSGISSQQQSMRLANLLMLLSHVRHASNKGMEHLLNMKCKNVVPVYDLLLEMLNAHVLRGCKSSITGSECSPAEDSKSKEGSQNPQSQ
Description: (§2) Displacement of fluorescein-labeled estrogen from human recombinant ERbeta by fluorescence polarization based competitive binding affinity assay

[6] = system: MCF7; assay: Reduction in Bcl-2 expression in human MCF7 cells at 10 uM after 72 hrs by SDS-PAGE and Western blot method; type: functional, cell-based
[7] = system: MCF7; assay: Reduction in Bcl-2 expression in human MCF7 cells at 10 uM after 48 hrs by SDS-PAGE and Western blot method; type: functional, cell-based
[8] = system: MCF7; assay: Induction of cell cycle arrest in human MCF7 cells assessed as accumulation at subG1 phase at 1 to 10 uM after 24 hrs by propidium iodide staining based flow cytometry; type: functional
[9] = molecular target: T3, Estrogen receptor beta; assay: Displacement of fluorescein-labeled estrogen from human recombinant ERbeta at 1 uM by fluorescence polarization based competitive binding affinity assay
[10] = system: MCF7; assay: Induction of cell cycle arrest in human MCF7 cells assessed as accumulation at subG1 phase at 1 to 10 uM after 48 hrs by propidium iodide staining based flow cytometry (reference value: 1.9%); type: functional
[11] = molecular target: T1, Estrogen receptor (Homo sapiens); assay: Displacement of fluorescein-labeled estrogen from human recombinant ERalpha at 1 uM by fluorescence polarization based competitive binding affinity assay
[12] = molecular target: Tubulin (Homo sapiens) (UniProt P68371+Q9H4B7+P0DPH7+P68366+Q13509+Q71U36+P04350+Q3ZCM7+P07437+P68363+Q9BQE3+Q6PEY2+Q13885+Q9BVA1+Q9BUF5); assay: Induction of tubulin depolymerization in human MCF7 cells at 1 uM after 4 hrs by sedimentation assay and Western blotting method; type: cell-based
[13] = system: MCF7; assay: Induction of cell cycle arrest in human MCF7 cells assessed as accumulation at G2/M phase at 1 to 10 uM after 24 hrs by propidium iodide staining based flow cytometry; type: functional
[14] = system: MCF7; assay: Reduction in Mcl-1 expression in human MCF7 cells at 10 uM after 72 hrs by SDS-PAGE and Western blot method; type: functional, cell-based
[15] = system: MCF7; assay: Induction of cell cycle arrest in human MCF7 cells assessed as accumulation at subG1 phase at 1 to 10 uM after 72 hrs by propidium iodide staining based flow cytometry (reference value: 3.7%); type: functional
[16] = molecular target: T3, Estrogen receptor beta; remark: listed apart in the source
Description: as §2

[17] = molecular target: T2, Estrogen receptor; remark: listed apart in the source
Description: as §1

[18] = system: MCF7; assay: Induction of cell cycle arrest in human MCF7 cells assessed as accumulation at G2/M phase at 10 uM after 24 hrs by propidium iodide staining based flow cytometry; type: functional
[19] = system: MCF7; assay: Induction of cell cycle arrest in human MCF7 cells assessed as increase in accumulation at sub-G1 phase at >10 nM after 24 hrs by propidium iodide staining based flow cytometry; type: functional
[20] = system: MCF7; assay: Induction of cell cycle arrest in human MCF7 cells assessed as increase in accumulation at sub-G1 phase at 1 to 10 uM after 24 hrs by propidium iodide staining based flow cytometry; type: functional
[21] = system: MCF7; assay: Induction of cell cycle arrest in human MCF7 cells assessed as accumulation at G2/M phase at >100 nM after 24 hrs by propidium iodide staining based flow cytometry; type: functional

SMILES	IC50 [2] [nM]	IC50 [3] [nM]	IC50 [5] [nM]	also measured
O=C1[C@@H](c2ccc(O)cc2)[C@H](c2ccc(O)cc2)N1c1ccc(O)cc1 (relative stereo)	> 50000	1100	4800	Activity [1]: inactive; IC50 [4]: 1400 nM
O=C1C[C@H](c2ccc(O)cc2)N1c1ccc(O)cc1	> 50000	13000	56000	–
COc1cc([C@@H]2C(=O)N(c3ccc(O)cc3)[C@H]2c2ccc(O)cc2)cc(OC)c1OC (relative stereo)	> 50000	1470	23000	–
O=C1[C@@H](Oc2ccccc2)[C@H](c2ccc(O)cc2)N1c1ccc(O)cc1 (relative stereo)	> 50000	140	1200	–
COc1ccc([C@H]2[C@H](C(O)c3ccc(O)cc3)C(=O)N2c2cc(OC)c(OC)c(OC)c2)cc1 (stereo partly specified)	210	8	15	Activity [6]: Active; Activity [7]: Active; Activity [8]: inactive; inhibition [9]: 94%; Activity [10]: 9.3%; inhibition [11]: 93%; Activity [12]: Active; Activity [13]: Active; Activity [14]: Active; Activity [15]: 17%
COc1ccc([C@H]2[C@H](C(O)c3ccc(OCCN4CCCC4)cc3)C(=O)N2c2cc(OC)c(OC)c(OC)c2)cc1 (stereo partly specified)	3800	–	–	IC50 [16]: Not Active; IC50 [17]: Not Active; Activity [18]: Active; Activity [19]: Active
COc1ccc([C@@H]2[C@@H](c3ccc(C(O)c4ccc(OCCN5CCCC5)cc4)cc3)C(=O)N2c2ccc(OC)cc2)cc1 (stereo partly specified)	4630	–	–	–
COc1cc([C@H]2[C@H](c3ccc(O)cc3)C(=O)N2c2ccc(O)cc2)cc(OC)c1OC (relative stereo)	> 50000	18000	144000	–
COc1ccc([C@H]2CC(=O)N2c2cc(OC)c(OC)c(OC)c2)cc1	–	–	–	Activity [20]: Active; IC50 [16]: Not Active; IC50 [17]: Not Active; Activity [21]: Active
O=C1[C@@H](c2ccc3ccccc3c2)[C@H](c2ccc(O)cc2)N1c1ccc(O)cc1 (relative stereo)	> 50000	150	1100	–
O=C1[C@@H](C(O)c2ccc(O)cc2)[C@H](c2ccc(O)cc2)N1c1ccc(O)cc1 (stereo partly specified)	49000	–	–	inhibition [9]: 43%; inhibition [11]: 40%
COC(=O)Nc1nc2cc(C(=O)c3cccs3)ccc2[nH]1	–	–	–	Activity [12]: Active
O=C1N(c2ccc(O)cc2)[C@@H](c2ccc(O)cc2)C1(c1ccccc1)c1ccccc1	> 50000	40	19	–
COc1ccc([C@H]2[C@H](C(O)c3ccc(O)cc3)C(=O)N2c2ccc(OC)cc2)cc1 (stereo partly specified)	32000	–	–	inhibition [9]: 75%; inhibition [11]: 37%
O=C1[C@@H](c2ccccc2)[C@H](c2ccc(O)cc2)N1c1ccc(O)cc1 (relative stereo)	> 50000	230	980	–
